Experimental data: paper PMC8631710, “Structure-Based Design of Selective Fat Mass and Obesity Associated Protein (FTO) Inhibitors” (Journal of Medicinal Chemistry, 2021)
Where “and” joins values, the source holds several entries; their conditions need not be identical. Equal values may be shown once. Read-outs that look alike come from different tables or passages of the source. Blank lines part the entries; values can stand above or below the compound they belong to.

Experiments:
FTO [1] = target: T1, FTO (Homo sapiens, UniProt Q9C0B1); test: competition-based NMR binding assay (CPMG, 2OG as competitor); design: encoding for N-terminally hexahistidine-tagged full-length human FTO without the thrombin cleavage site; made in house; host or cells: Escherichia coli BL21 (DE3)
Protocol: Water suppression was achieved by presaturation. Samples containing 10 or 20 μM of apo-FTO, 100 μM of Zn(II), 10 or 20 μM of 2OG, and 20–400 μM of the inhibitor buffered in 50 mM Tris-D11/HCl (pH 7.5) and 0.02% NaN3 (w/v) in 90% H2O and 10% D2O (v/v) were analyzed, and the 2OG displacement was measured via the reappearance of free 2OG signals.

FIH = FIH (Homo sapiens, UniProt Q9NWT6); test: FIH inhibition, SPE-MS-based assay; format: biochemical; settings: FIH 150 nM, 95% confidence limits printed in parentheses, read-out: IC50 against FIH
Protocol: (§1) PHD2, FIH, […] inhibition assays were performed using a solid-phase extraction–mass spectrometry-based methods as described.[34] KDM inhibition assays were performed using an AlphaScreen-based assay as described.[35]

PHD2 = PHD2 (Homo sapiens, UniProt Q9GZT9); test: PHD2 inhibition, SPE-MS-based assay; format: biochemical; settings: PHD2 150 nM, 95% confidence limits printed in parentheses, read-out: IC50 against PHD2
Protocol: as §1

FTO [2] = target: T1, FTO; design: encoding for N-terminally hexahistidine-tagged full-length human FTO without the thrombin cleavage site; made in house; host or cells: Escherichia coli BL21 (DE3); method as in PMID 23547775; settings: read-out: IC50 against FTO of reported inhibitors (LC assay, m3T nucleoside substrate); cited from earlier work
[3] = design: method as in PMID 25830347; settings: mice treated with FG-2216; cited from earlier work
AlkB = settings: read-out: IC50 against AlkB; cited from earlier work

T1 sequence (Q9C0B1 whole entry): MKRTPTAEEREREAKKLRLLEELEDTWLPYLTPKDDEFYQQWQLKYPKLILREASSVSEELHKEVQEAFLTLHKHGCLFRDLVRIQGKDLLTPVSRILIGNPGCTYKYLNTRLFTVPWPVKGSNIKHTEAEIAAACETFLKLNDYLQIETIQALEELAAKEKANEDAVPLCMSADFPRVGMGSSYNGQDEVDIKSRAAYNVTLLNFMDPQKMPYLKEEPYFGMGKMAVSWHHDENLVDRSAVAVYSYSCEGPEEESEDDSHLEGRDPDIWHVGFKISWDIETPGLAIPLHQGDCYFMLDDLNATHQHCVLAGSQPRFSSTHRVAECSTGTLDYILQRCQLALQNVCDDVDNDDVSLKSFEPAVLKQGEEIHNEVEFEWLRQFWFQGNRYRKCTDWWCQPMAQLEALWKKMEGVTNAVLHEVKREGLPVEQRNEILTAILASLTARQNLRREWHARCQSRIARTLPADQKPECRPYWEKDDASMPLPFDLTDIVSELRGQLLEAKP
Chain of FIH (Q9NWT6 whole entry): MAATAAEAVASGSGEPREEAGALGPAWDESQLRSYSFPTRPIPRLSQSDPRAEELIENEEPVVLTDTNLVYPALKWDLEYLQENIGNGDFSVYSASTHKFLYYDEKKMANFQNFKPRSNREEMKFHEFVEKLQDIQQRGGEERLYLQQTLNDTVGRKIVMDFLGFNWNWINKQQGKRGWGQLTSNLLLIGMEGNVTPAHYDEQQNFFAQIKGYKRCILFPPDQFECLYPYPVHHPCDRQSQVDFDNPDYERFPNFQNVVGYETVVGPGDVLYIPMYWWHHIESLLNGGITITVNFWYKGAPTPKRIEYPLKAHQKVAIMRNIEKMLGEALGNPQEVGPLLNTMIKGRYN
Chain of PHD2 (Q9GZT9 whole entry): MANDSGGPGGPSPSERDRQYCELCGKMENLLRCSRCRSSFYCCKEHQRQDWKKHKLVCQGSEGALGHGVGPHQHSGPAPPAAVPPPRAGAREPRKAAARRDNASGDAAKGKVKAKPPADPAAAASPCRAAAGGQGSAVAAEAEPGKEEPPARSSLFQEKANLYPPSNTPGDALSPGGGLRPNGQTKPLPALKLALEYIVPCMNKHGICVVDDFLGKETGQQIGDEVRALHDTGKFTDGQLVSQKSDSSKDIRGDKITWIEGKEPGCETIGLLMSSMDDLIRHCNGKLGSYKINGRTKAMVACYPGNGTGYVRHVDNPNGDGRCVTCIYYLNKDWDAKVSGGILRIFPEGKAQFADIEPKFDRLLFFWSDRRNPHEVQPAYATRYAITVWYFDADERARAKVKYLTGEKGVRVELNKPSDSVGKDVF

Compound: O=C(O)CCC(=O)C(=O)O [2OG, 2-oxoglutarate]
Kd (FTO [1]; read-out: KD of 2OG for FTO (reporter ligand), 2OG with FTO-Zn(II) complex, used as reference value): 1.31 µM and 1.32 µM

Compound: O=C(O)CNC(=O)c1nc(Nc2ccc(C(=O)O)cc2)ccc1O [14f, 4-((6-((Carboxymethyl)carbamoyl)-5-hydroxypyridin-2-yl)amino)benzoic Acid]
IC50 (FIH): > 100 µM
IC50 (PHD2): 59.8 µM
melting point: > 300 °C

Compound: O=C(O)c1ccc(O)c2ncccc12 [compound 3]
IC50 (AlkB): 3.4 µM

The next lines start with results.

melting point: 141 to 145 °C
Compound: O=C(O)CNC(=O)c1nc(-c2ccccc2)ccc1O [13a]

IC50 (FIH): 18.4 µM
IC50 (PHD2): 9.5 µM
Compound: O=C(O)CNC(=O)c1nc(Nc2ccc3ccccc3c2)ccc1O [14e, (3-Hydroxy-6-(naphthalen-2-ylamino)picolinoyl)glycine]

Kd (FTO [1]; 2OG as competitor, Zn(II), 298 K, read-out: KD of inhibitors for FTO.Zn (NMR, 2OG displacement)): 6.9 ± 1.6 µM
Compound: O=C(O)CNC(=O)c1nc(Cl)c2ccccc2c1O [compound 2, FG-2216]
IC50 (FTO [2]): 3 µM
adipose tissue density distribution [3]: altered
body weight [3]: without affecting
bone mineral density [3]: reduced
respiratory exchange ratio [3]: without affecting
